# Patent US10112958B2, “N-[2-(2-amino-6,6-disubstituted-4,4a,5,6-tetrahydropyrano[3,4-d][1,3]thiazin-8a(8H)-YL)-1,3-thiazol-4-YL] amides” (Pfizer Inc., priority 2015, dated 2018)
# Target: T1, BACE1 enzyme (Homo sapiens, UniProt P56817)
# T1 construct: transfected with a soluble BACE construct (BACE1deltaTM96His); His (C); made in house; host or cells: CHO-K1 cells (secreted into conditioned media)
# Experiment: BACE1 Cell-Free Assay (fluorescence polarization, cleavage of synthetic APP substrate)
# Format: biochemical
# Details: geometric mean of 2-4 determinations unless otherwise indicated (b: ≥5 determinations; c: single determination); 0.1 nM BACE1, 150 nM peptide substrate, pH 4.5, 3 hours at 37° C.
# Source text: BACE1 Cell-Free Assay: Beta-secretase (BACE) is one of the enzymes involved in the generation of the amyloid beta peptide found in the amyloid plaques of Alzheimer's disease patients. This assay measures the inhibition of the beta-secretase enzyme as it cleaves a non-native peptide.
# A synthetic APP substrate that can be cleaved by beta-secretase having N-terminal biotin and made fluorescent by the covalent attachment of Oregon Green at the Cys residue is used to assay beta-secretase activity in the presence or absence of the inhibitory compounds. The substrate is Biotin-GLTNIKTEEISEISY^EVEFR-C[Oregon Green]KK-OH. The BACE1 enzyme is affinity purified material from conditioned media of CHO-K1 cells that have been transfected with a soluble BACE construct (BACE1deltaTM96His). Compounds are incubated in a ½ log dose response curve from a top concentration of 100 μM with BACE1 enzyme and the biotinylated fluorescent peptide in 384-well black plates (Thermo Scientific #4318). BACE1 is at a final concentration of 0.1 nM with a final concentration of peptide substrate of 150 nM in a reaction volume of 30 μL assay buffer [100 mM sodium acetate, pH 4.5 (brought to pH with acetic acid), and 0.001% Tween-20]. Plates are covered and incubated for 3 hours at 37° C. The reaction is stopped with the addition of 30 μL of 1.5 μM Streptavidin (Pierce, #21125). After a 10 minute incubation at room temperature, plates are read on a PerkinElmer EnVision for fluorescence polarization (Ex485 nm/Em530 nm). The activity of the beta-secretase enzyme is detected by changes in the fluorescence polarization that occur when the substrate is cleaved by the enzyme.
# T1 sequence (P56817 46-457 limits assumed): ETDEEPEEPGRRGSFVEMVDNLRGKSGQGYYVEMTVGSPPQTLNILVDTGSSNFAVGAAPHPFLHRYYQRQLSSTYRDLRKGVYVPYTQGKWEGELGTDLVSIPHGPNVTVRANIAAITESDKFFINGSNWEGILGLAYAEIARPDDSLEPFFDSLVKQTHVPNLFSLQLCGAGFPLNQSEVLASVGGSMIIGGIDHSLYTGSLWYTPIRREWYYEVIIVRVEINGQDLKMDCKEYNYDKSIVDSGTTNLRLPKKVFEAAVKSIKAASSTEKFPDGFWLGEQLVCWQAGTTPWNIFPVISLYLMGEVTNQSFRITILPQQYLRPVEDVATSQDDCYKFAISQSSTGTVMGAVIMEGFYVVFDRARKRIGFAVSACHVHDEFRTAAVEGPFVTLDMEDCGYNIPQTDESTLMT
row,Compound,IC50
1,"NC1=N[C@@]2(c3nc(NC(=O)c4ccc(OC(F)F)cn4)cs3)COC3(CCC3)C[C@H]2CS1 (racemic) [Example 3, N-{2-[cis-2′-amino-4a′,5′-dihydro-4′H-spiro[cyclobutane-1,6′-pyrano[3,4-d][1,3]thiazin]-8a′(8′H)-yl]-1,3-thiazol-4-yl}-5-(difluoromethoxy)pyridine-2-carboxamide]",252 nM
2,"CC#CCOc1ccc(C(=O)Nc2csc([C@@]34COC(C)(C)C[C@@H]3CSC(N)=N4)n2)nc1 (single isomer, unassigned) [Example 1]",31000 nM
3,"CC#CCOc1ccc(C(=O)Nc2csc([C@]34COC(C)(C)C[C@H]3CSC(N)=N4)n2)nc1 (single isomer, unassigned) [Example 2]",88 nM
4,"NC1=N[C@]2(c3nc(NC(=O)c4ccc(OC(F)F)cn4)cs3)COC3(CCC3)C[C@@H]2CS1 (single isomer, unassigned) [Example 4, N-{2-[(4a′S,8a′S)-2′-amino-4a′,5′-dihydro-4′H-spiro[cyclobutane-1,6′-pyrano[3,4-d] [1,3]thiazin]-8a′(8′H)-yl]-1,3-thiazol-4-yl}-5-(difluoromethoxy)pyridine-2-carboxamide]",> 21100 nM
5,"NC1=N[C@@]2(c3nc(NC(=O)c4ccc(OC(F)F)cn4)cs3)COC3(CCC3)C[C@H]2CS1 (single isomer, unassigned) [Example 5, N-{2-[(4a′R,8a′R)-2′-amino-4a′,5′-dihydro-4′H-spiro[cyclobutane-1,6′-pyrano[3,4-d] [1,3]thiazin]-8a′(8′H)-yl]-1,3-thiazol-4-yl}-5-(difluoromethoxy)pyridine-2-carboxamide]",138 nM
6,"CC1(C)C[C@@H]2CSC(N)=N[C@]2(c2nc(NC(=O)c3ccn(C(F)F)n3)cs2)CO1 (single isomer, unassigned) [Example 11]",6960 nM
7,"CC1(C)C[C@H]2CSC(N)=N[C@@]2(c2nc(NC(=O)c3ccn(C(F)F)n3)cs2)CO1 (single isomer, unassigned) [Example 12]",22 nM
8,"CC1(C)C[C@@H]2CSC(N)=N[C@]2(c2nc(NC(=O)c3cnc(OC(F)F)cn3)cs2)CO1 (single isomer, unassigned) [Example 13]",7950 nM
9,"CC1(C)C[C@H]2CSC(N)=N[C@@]2(c2nc(NC(=O)c3cnc(OC(F)F)cn3)cs2)CO1 (single isomer, unassigned) [Example 14]",167 nM
10,"CC1(C)C[C@@H]2CSC(N)=N[C@]2(c2nc(NC(=O)c3ccc(OC(F)F)cn3)cs2)CO1 (single isomer, unassigned) [Example 15]",22200 nM
11,"CC(F)(F)Oc1ccc(C(=O)Nc2csc([C@@]34COC(C)(C)C[C@@H]3CSC(N)=N4)n2)nc1 (single isomer, unassigned) [Example 16]",28500 nM
12,"CC(F)(F)Oc1ccc(C(=O)Nc2csc([C@]34COC(C)(C)C[C@H]3CSC(N)=N4)n2)nc1 (single isomer, unassigned) [Example 17]",416 nM
13,"CC(F)(F)COc1cnc(C(=O)Nc2csc([C@@]34COC(C)(C)C[C@@H]3CSC(N)=N4)n2)cn1 (single isomer, unassigned) [Example 18]",61700 nM
14,"CC(F)(F)COc1cnc(C(=O)Nc2csc([C@]34COC(C)(C)C[C@H]3CSC(N)=N4)n2)cn1 (single isomer, unassigned) [Example 19]",421 nM
15,"CC#CCOc1cnc(C(=O)Nc2csc([C@@]34COC(C)(C)C[C@@H]3CSC(N)=N4)n2)cn1 (single isomer, unassigned) [Example 20]",15500 nM
16,"CC#CCOc1cnc(C(=O)Nc2csc([C@]34COC(C)(C)C[C@H]3CSC(N)=N4)n2)cn1 (single isomer, unassigned) [Example 21]",41 nM
17,"CC1(C)C[C@@H]2CSC(N)=N[C@]2(c2nc(NC(=O)c3coc(CF)n3)cs2)CO1 (single isomer, unassigned) [Example 22]",15100 nM
18,"CC1(C)C[C@H]2CSC(N)=N[C@@]2(c2nc(NC(=O)c3coc(CF)n3)cs2)CO1 (single isomer, unassigned) [Example 23]",17 nM
19,"Cc1cc(OC(F)F)cnc1C(=O)Nc1csc([C@@]23COC(C)(C)C[C@@H]2CSC(N)=N3)n1 (single isomer, unassigned) [Example 25]",14800 nM
20,"NC1=N[C@]2(c3nc(NC(=O)c4ccc(OC(F)F)cn4)cs3)COC3(CC3)C[C@@H]2CS1 (single isomer, unassigned) [Example 38, N-{2-[(4a′S,8a′S)-2′-amino-4a′,5′-dihydro-4′H-spiro[cyclopropane-1,6′-pyrano[3,4-d][1,3]thiazin]-8a′(8′H)-yl]-1,3-thiazol-4-yl}-5-(difluoromethoxy)pyridine-2-carboxamide]",34500 nM
21,"NC1=N[C@@]2(c3nc(NC(=O)c4ccc(OC(F)F)cn4)cs3)COC3(CC3)C[C@H]2CS1 (single isomer, unassigned) [Example 39, N-{2-[(4a′R,8a′R)-2′-amino-4a′,5′-dihydro-4′H-spiro[cyclopropane-1,6′-pyrano[3,4-d] [1,3]thiazin]-8a′(8′H)-yl]-1,3-thiazol-4-yl}-5-(difluoromethoxy)pyridine-2-carboxamide]",314 nM
22,"NC1=N[C@@]2(c3nc(NC(=O)c4ccc(Cl)cn4)cs3)COC3(CCC3)C[C@H]2CS1 [Example 6, N-{2-[(4a′R,8a′R)-2′-amino-4a′,5′-dihydro-4′H-spiro[cyclobutane-1,6′-pyrano[3,4-d][1,3]thiazin]-8a′(8′H)-yl]-1,3-thiazol-4-yl}-5-chloropyridine-2-carboxamide]",88 nM
23,"CC1(C)C[C@H]2CSC(N)=N[C@@]2(c2nc(NC(=O)c3ccc(OC(F)F)cn3)cs2)CO1 [Example 7, N-{2-[(4aR,8aR)-2-amino-6,6-dimethyl-4,4a,5,6-tetrahydropyrano[3,4-d][1,3]thiazin-8a(8H)-yl]-1,3-thiazol-4-yl}-5-(difluoromethoxy)pyridine-2-carboxamide]",116 nM
24,"CC[C@@]1(C)C[C@H]2CSC(N)=N[C@@]2(c2nc(NC(=O)c3ccc(OC(F)F)cn3)cs2)CO1 [Example 8, N-{2-[(4aR,6S,8aR)-2-amino-6-ethyl-6-methyl-4,4a,5,6-tetrahydropyrano[3,4-d] [1,3]thiazin-8a(8H)-yl]-1,3-thiazol-4-yl}-5-(difluoromethoxy)pyridine-2-carboxamide]",41 nM
25,"COC[C@@]1(C)C[C@H]2CSC(N)=N[C@@]2(c2nc(NC(=O)c3ccc(OC(F)F)cn3)cs2)CO1 [Example 9, N-{2-[(4aR,6R,8aR)-2-amino-6-(methoxymethyl)-6-methyl-4,4a,5,6-tetrahydropyrano[3,4-d][1,3]thiazin-8a(8H)-yl]-1,3-thiazol-4-yl}-5-(difluoromethoxy) pyridine-2-carboxamide]",105 nM
26,"NC1=N[C@@]2(c3nc(NC(=O)c4ccc(OC(F)F)cn4)cs3)COC(CF)(CF)C[C@H]2CS1 [Example 10, N-{2-[(4aR,8aR)-2-amino-6,6-bis(fluoromethyl)-4,4a,5,6-tetrahydropyrano[3,4-d][1,3]thiazin-8a(8H)-yl]-1,3-thiazol-4-yl}-5-(difluoromethoxy)pyridine-2-carboxamide]",565 nM
27,"Cc1cc(OC(F)F)cnc1C(=O)Nc1csc([C@]23COC(C)(C)C[C@H]2CSC(N)=N3)n1 [Example 24, N-{2-[(4aR,8aR)-2-amino-6,6-dimethyl-4,4a,5,6-tetrahydropyrano[3,4-d][1,3]thiazin-8a(8H)-yl]-1,3-thiazol-4-yl}-5-(difluoromethoxy)-3-methylpyridine-2-carboxamide]",47 nM
28,"CC[C@@]1(C)C[C@@H]2CSC(N)=N[C@]2(c2nc(NC(=O)c3ccc(OC(F)F)cn3)cs2)CO1 [Example 26, N-{2-[(4aS,6S,8aS)-2-amino-6-ethyl-6-methyl-4,4a,5,6-tetrahydropyrano[3,4-d][1,3]thiazin-8a(8H)-yl]-1,3-thiazol-4-yl}-5-(difluoromethoxy)pyridine-2-carboxamide]",406 nM
29,"CC[C@]1(C)C[C@H]2CSC(N)=N[C@@]2(c2nc(NC(=O)c3ccc(OC(F)F)cn3)cs2)CO1 [Example 27, N-{2-[(4aR,6R,8aR)-2-amino-6-ethyl-6-methyl-4,4a,5,6-tetrahydropyrano[3,4-d][1,3]thiazin-8a(8H)-yl]-1,3-thiazol-4-yl}-5-(difluoromethoxy)pyridine-2-carboxamide]",1830 nM
30,"CC[C@]1(C)C[C@@H]2CSC(N)=N[C@]2(c2nc(NC(=O)c3ccc(OC(F)F)cn3)cs2)CO1 [Example 28, N-{2-[(4aS,6R,8aS)-2-amino-6-ethyl-6-methyl-4,4a,5,6-tetrahydropyrano[3,4-d][1,3]thiazin-8a(8H)-yl]-1,3-thiazol-4-yl}-5-(difluoromethoxy)pyridine-2-carboxamide]",14800 nM
